Here are results for 28 compounds from BindingDB's records for doi:10.7270/Q2SJ1J08 (University of Pittsburgh, 2007).

Each structure is given as a SMILES string.

The assay concerns the target T1, M-phase inducer phosphatase 2 (Homo sapiens, UniProt P30305).
T1 sequence (P30305 whole entry): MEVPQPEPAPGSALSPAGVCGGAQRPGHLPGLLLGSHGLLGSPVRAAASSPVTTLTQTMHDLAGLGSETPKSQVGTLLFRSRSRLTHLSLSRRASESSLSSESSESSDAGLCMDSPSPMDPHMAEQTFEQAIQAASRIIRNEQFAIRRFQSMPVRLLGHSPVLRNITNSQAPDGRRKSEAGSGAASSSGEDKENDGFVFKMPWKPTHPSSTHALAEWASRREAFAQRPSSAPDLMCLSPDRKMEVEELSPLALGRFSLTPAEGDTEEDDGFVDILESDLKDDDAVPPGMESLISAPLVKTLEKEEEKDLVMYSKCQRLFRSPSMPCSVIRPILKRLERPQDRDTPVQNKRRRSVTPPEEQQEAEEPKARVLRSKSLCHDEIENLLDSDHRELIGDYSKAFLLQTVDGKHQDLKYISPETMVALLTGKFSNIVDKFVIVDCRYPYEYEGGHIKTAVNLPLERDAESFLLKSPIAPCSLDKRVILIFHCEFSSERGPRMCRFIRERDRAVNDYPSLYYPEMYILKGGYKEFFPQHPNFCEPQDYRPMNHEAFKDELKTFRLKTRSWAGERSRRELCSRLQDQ
Briefly: Cdc25B phosphatase inhibition with DTT and catalase – biochemical, 25 mM DTT, probe assessment, dose response (AID 669).
Consider `N#Cc1c(N2CCCC2)nc(N)c2c(N)nc(N3CCCC3)cc12` [SMR000061605], for which the IC50 (commonly the point on the concentration scale where inhibition reaches its midpoint) was greater than 50 µM. The same measure for `Cc1ccc2c(c1)C1C=CCC1C(C(=O)O)N2` (stereo not drawn) [MLS-0067149.0001]: 12.1 µM; for `O=C(O)C1Nc2c(O)cccc2C2C=CCC12` (stereo not drawn): 16 µM; for `COc1cccc2c1NC(C(=O)O)C1CC=CC21` (stereo not drawn) [SMR000009698]: 13.2 µM.

For `O=C(OC1CCCCC1)c1ccc2c(c1)C1C=CCC1C(C(=O)O)N2` (stereo not drawn) [SMR000019385], the IC50 was found to be 8.69 µM.

Compound `Oc1nc(Nc2ccccc2)cc2ccccc12` [MLS000043701] registered an IC50 greater than 50 µM. The compound `O=C1C=Cc2ccccc2/C1=C/NC12CN3CCN(CN(C3)C1)C2` [MLS000071484] registered an IC50 greater than 50 µM. For the compound `COc1ccc2noc3c2c1C(=O)c1ccccc1-3` [MLS000106874], the IC50 is greater than 50 µM. The same measure for `[O-]/[N+](=C\c1ccc(OC(F)F)cc1)c1ccccc1` [1-[4-(difluoromethoxy)phenyl]-N-phenylmethanimine oxide]: greater than 50 µM; for `CC(=O)Nc1cc(OC(C)=O)c2nonc2c1OC(C)=O` [Acetic acid 7-acetoxy-5-acetylamino-benzo[1,2,5]oxadiazol-4-yl ester]: greater than 50 µM; for `Cn1ncnc2c(=O)n(C)c(=O)nc1-2`: greater than 50 µM. The value for `O=C(NC1(O)C(=O)c2ccccc2C1=O)c1ccccc1` [N-(2-hydroxy-1,3-dioxo-2-indenyl)benzamide] was greater than 50 µM. The same measure for `Cc1ccc2c(c1C)NC(C(=O)O)C1CC=CC21` (stereo not drawn): 20.5 µM; for `CCOC(=O)C(C(=O)OCC)c1cc(Br)c2noc3c2c1C(=O)c1ccccc1-3` [MLS000038842]: greater than 50 µM; for `Nc1cccc2cnccc12` [isoquinolin-5-amine]: greater than 50 µM. `N#Cc1c(N)sc(=S)c2c1CCN(Cc1ccccc1)C2` [3-Amino-7-benzyl-1-thioxo-5,6,7,8-tetrahydro-1H-thiopyrano[3,4-c]pyridine-4-carbonitrile] yielded an IC50 greater than 50 µM. As for `c1ccc(CSc2nnc(-c3ccco3)c(-c3ccco3)n2)cc1` [MLS-0029114.0001], the IC50 was greater than 50 µM. In turn, `CCn1nc(-c2ccccc2)nc2c(=O)n(C)c(=O)nc1-2` [1-Ethyl-6-methyl-3-phenyl-1H-pyrimido[5,4-e][1,2,4]triazine-5,7-dione] displayed an IC50 greater than 50 µM.

In turn, `O=C1Cc2ccccc2C(=O)N1CCc1ccccc1` [2-(2-phenylethyl)-4H-isoquinoline-1,3-dione] gave an IC50 greater than 50 µM. The value for `COc1ccc(Br)cc1C=c1sc2nc(-c3ccco3)nn2c1=O` [5-[(5-bromanyl-2-methoxy-phenyl)methylidene]-2-(furan-2-yl)-[1,3]thiazolo[3,2-b][1,2,4]triazol-6-one] was 16.8 µM; that for `COc1cccc2c(C)c(C(=O)O)[nH]c12` was 11.4 µM. The value for `O=C(Nc1ccc2nc(-c3ccco3)c(-c3ccco3)nc2c1)N1CCCCCC1` was 40.9 µM. Compound `Cc1c(N=c2c(=O)c3ccccc3c2=O)c(=O)n(-c2ccccc2)n1C` [MLS000105950] showed an IC50 greater than 50 µM.

For `O=C1C=Cc2ccccc2C1=O` [1,2-dihydronaphthalene-1,2-dione], the IC50 is greater than 50 µM. The value for `Cc1ccccc1Nc1cc2ccccc2c(O)n1` [3-[(2-methylphenyl)amino]-2H-isoquinolin-1-one] was greater than 50 µM. The same measure for `CCn1nc(-c2cccs2)nc2c(=O)n(C)c(=O)nc1-2` [1-ethyl-6-methyl-3-thiophen-2-yl-pyrimido[5,4-e][1,2,4]triazine-5,7-dione]: greater than 50 µM; for `[O-]/[N+](=C\c1ccncc1)c1ccccc1`: greater than 50 µM. In turn, `CCOc1ccc2noc3c2c1C(=O)c1ccccc1-3` [MLS000106837] showed an IC50 greater than 50 µM.
